Reference: PubChem BioAssay AID2060887 (Molecular Pharmacology Branch, DTP, NCI, 2025)

Test system: 782815-120-R-J1-PDC complex spheroid viability
Assay: Anticancer human tumor 782815-120-R-J1-PDC patient-derived colon adenocarcinoma cell line growth inhibition [RAS]
Settings: for IC50: curve of first compound; for viability, T/C: stronger effect = lower value
How it was run: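 Multi-cell-type spheroids: tumor cells plus HUVEC endothelial cells and mesenchymal stem cells. RAS-pathway inhibitors were combined with targeted agents, each dosed in half-log steps down from clinical Cmax, or from 10 microM when Cmax was unknown.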

[1] = second compound 0.0316 µM, first compound 0.0316 µM
[2] = second compound 0.0316 µM, first compound 0.1 µM
[3] = second compound 0.0316 µM, first compound 0.316 µM
[4] = second compound 0.0316 µM, first compound 1 µM
[5] = second compound 0.0316 µM, first compound 3.16 µM
[6] = second compound 0.0316 µM, first compound 10 µM
[7] = second compound 0.1 µM, first compound 0.0316 µM
[8] = second compound 0.1 µM, first compound 0.1 µM
[9] = second compound 0.1 µM, first compound 0.316 µM
[10] = second compound 0.1 µM, first compound 1 µM
[11] = second compound 0.1 µM, first compound 3.16 µM
[12] = second compound 0.1 µM, first compound 10 µM
[13] = second compound 0.316 µM, first compound 0.0316 µM
[14] = second compound 0.316 µM, first compound 0.1 µM
[15] = second compound 0.316 µM, first compound 0.316 µM
[16] = second compound 0.316 µM, first compound 1 µM
[17] = second compound 0.316 µM, first compound 3.16 µM
[18] = second compound 0.316 µM, first compound 10 µM
[19] = second compound 1 µM, first compound 0.0316 µM
[20] = second compound 1 µM, first compound 0.1 µM
[21] = second compound 1 µM, first compound 0.316 µM
[22] = second compound 1 µM, first compound 1 µM
[23] = second compound 1 µM, first compound 3.16 µM
[24] = second compound 1 µM, first compound 10 µM
[25] = second compound 3.16 µM, first compound 0.0316 µM
[26] = second compound 3.16 µM, first compound 0.1 µM
[27] = second compound 3.16 µM, first compound 0.316 µM
[28] = second compound 3.16 µM, first compound 1 µM
[29] = second compound 3.16 µM, first compound 3.16 µM
[30] = second compound 3.16 µM, first compound 10 µM
[31] = second compound 10 µM, first compound 0.0316 µM
[32] = second compound 10 µM, first compound 0.1 µM
[33] = second compound 10 µM, first compound 0.316 µM
[34] = second compound 10 µM, first compound 1 µM
[35] = second compound 10 µM, first compound 3.16 µM
[36] = second compound 10 µM, first compound 10 µM
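Also: spheroids exposed to compounds for 7 days before reading.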
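For viability, T/C in this document: 100% = DMSO vehicle control viability.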

CC(Nc1ccc2c(c1)OCCn1cc(N3C(=O)OCC3C(F)F)nc1-2)C(N)=O (centres undefined) + C#Cc1c(F)ccc2cc(O)cc(-c3ncc4c(N5CC6CCC(C5)N6)nc(OCC56CCCN5CC(F)C6)nc4c3F)c12
IC50 (second compound 0.0316 µM): > 10 µM
IC50 (second compound 0.1 µM): > 10 µM
IC50 (second compound 0.316 µM): > 10 µM
IC50 (second compound 1 µM): > 10 µM
IC50 (second compound 3.16 µM): > 10 µM
IC50 (second compound 10 µM): > 10 µM
viability, T/C [1]: 94.1%
viability, T/C [2]: 98.6%
viability, T/C [3]: 99.9%
viability, T/C [4]: 89.7%
viability, T/C [5]: 96.6%
viability, T/C [6]: 91.8%
viability, T/C [7]: 95.7%
viability, T/C [8]: 102%
viability, T/C [9]: 92.9%
viability, T/C [10]: 90%
viability, T/C [11]: 100%
viability, T/C [12]: 94.1%
viability, T/C [13]: 99%
viability, T/C [14]: 99.2%
viability, T/C [15]: 87.9%
viability, T/C [16]: 99.8%
viability, T/C [17]: 101%
viability, T/C [18]: 94.6%
viability, T/C [19]: 106%
viability, T/C [20]: 101%
viability, T/C [21]: 89%
viability, T/C [22]: 97.2%
viability, T/C [23]: 87.7%
viability, T/C [24]: 103%
viability, T/C [25]: 111%
viability, T/C [26]: 92.4%
viability, T/C [27]: 97.8%
viability, T/C [28]: 87.4%
viability, T/C [29]: 97.5%
viability, T/C [30]: 95.4%
viability, T/C [31]: 102%
viability, T/C [32]: 95.9%
viability, T/C [33]: 79%
viability, T/C [34]: 92.6%
viability, T/C [35]: 89.1%
viability, T/C [36]: 81.2%

Cc1nc(N2CCC3(CC2)COC(C)C3N)c(CO)nc1Sc1ccnc(N)c1Cl (centres undefined) + C#Cc1c(F)ccc2cc(O)cc(-c3ncc4c(N5CC6CCC(C5)N6)nc(OCC56CCCN5CC(F)C6)nc4c3F)c12
IC50 (second compound 0.0316 µM): > 10 µM
IC50 (second compound 0.1 µM): > 10 µM
IC50 (second compound 0.316 µM): > 10 µM
IC50 (second compound 1 µM): > 10 µM
IC50 (second compound 3.16 µM): > 10 µM
IC50 (second compound 10 µM): > 10 µM
viability, T/C [1]: 94.9%
viability, T/C [2]: 99.1%
viability, T/C [3]: 97.7%
viability, T/C [4]: 90.2%
viability, T/C [5]: 91.5%
viability, T/C [6]: 95.2%
viability, T/C [7]: 96%
viability, T/C [8]: 109%
viability, T/C [9]: 106%
viability, T/C [10]: 99.7%
viability, T/C [11]: 105%
viability, T/C [12]: 98.7%
viability, T/C [13]: 104%
viability, T/C [14]: 102%
viability, T/C [15]: 91.9%
viability, T/C [16]: 94.7%
viability, T/C [17]: 92.1%
viability, T/C [18]: 99.7%
viability, T/C [19]: 94.3%
viability, T/C [20]: 90.1%
viability, T/C [21]: 104%
viability, T/C [22]: 88.8%
viability, T/C [23]: 102%
viability, T/C [24]: 98.1%
viability, T/C [25]: 99.3%
viability, T/C [26]: 96.8%
viability, T/C [27]: 86%
viability, T/C [28]: 93.6%
viability, T/C [29]: 97%
viability, T/C [30]: 92.9%
viability, T/C [31]: 101%
viability, T/C [32]: 96.7%
viability, T/C [33]: 93.4%
viability, T/C [34]: 92.6%
viability, T/C [35]: 105%
viability, T/C [36]: 92.3%
